Test results published in BindingDB's records for doi:10.1016/j.bmc.2006.12.026 (University of North Carolina At Chapel Hill, 2007).

Molecular target: T1, Nuclear receptor subfamily 1 group I member 2 (Homo sapiens, UniProt O75469)
T1 sequence (O75469 whole entry): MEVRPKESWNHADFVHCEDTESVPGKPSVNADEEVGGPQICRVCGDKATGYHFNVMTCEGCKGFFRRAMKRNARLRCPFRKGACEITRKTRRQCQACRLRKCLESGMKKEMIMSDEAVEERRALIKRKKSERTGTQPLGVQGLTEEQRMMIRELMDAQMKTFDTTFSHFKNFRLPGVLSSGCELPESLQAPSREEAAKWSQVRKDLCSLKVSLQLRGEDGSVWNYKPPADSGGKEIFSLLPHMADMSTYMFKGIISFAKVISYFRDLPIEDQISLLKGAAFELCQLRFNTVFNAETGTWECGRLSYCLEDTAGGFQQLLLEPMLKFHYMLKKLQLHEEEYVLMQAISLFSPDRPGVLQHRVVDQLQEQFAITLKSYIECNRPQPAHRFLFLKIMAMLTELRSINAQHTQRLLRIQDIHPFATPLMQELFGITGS
Assay: Competition Ligand Binding Assay and Transient Transfection Assay
Settings: pH 8; 22 °C
Protocol: Polylysine YiO imaging beads (Amersham, GE Healthcare) were coated with histidine-tagged WT PXR LBD. Nonspecific binding sites were blocked with BSA. [N-Methyl-3H]-GW0438X was added to the blocked receptor-bead. The receptor-bead-radioligand mix was added directly to test compounds in 384-well plates. […] Nonspecific binding was determined in the presence of 10 uM GW0438. Data analysis was achieved using a three-parameter fit. The data were calculated as pIC50s. The pEC50 values were obtained from measurement of Luciferase reporter activity in CV-1 cells transfected with full-length hPXR.

EC50 | IC50 | SMILES
126 nM | 251 nM | CCC(O)(c1ccc(N(CC(F)(F)F)S(=O)(=O)c2ccccc2)cc1)C(F)(F)F (stereo not drawn) [N-[4-(1,1,1-trifluoro-2-hydroxybutan-2-yl)phenyl]-N-(2,2,2-trifluoroethyl)benzenesulfonamide]
3 nM | – | O=S(=O)(c1ccccc1)N(CC(F)(F)F)c1ccc(C(O)(C2CCCCC2)C(F)(F)F)cc1 (stereo not drawn) [N-[4-(1-cyclohexyl-2,2,2-trifluoro-1-hydroxyethyl)phenyl]-N-(2,2,2-trifluoroethyl)benzenesulfonamide]
